Results on 1 substance are retold here after paper PMC4735555, “Crystal structure of the N-myristoylated lipopeptide-bound MHC class I complex” (Nature Communications, 2016).

Experiment [1] concerns 2N5.1 (Mamu-B*098-transfected LLC-MK2 cells as Ag-presenting cells). Description: Ag presentation by LLC-MK2 cells transfected with rhesus MHC class I (Mamu) cDNA to 2N5.1. It is filed as cell-based, rhesus macaque. The following applies: C14nef5 presented by LLC-MK2 expressing Mamu-B*098; in triplicate, mean with s.e.m. (graph). Here is the method: Figure 1 Identification of Mamu-B*098 as a lipopeptide Ag-presenting molecule. (a) LLC-MK2 cells transfected with each of the rhesus MHC class I genes were tested for their ability to present C14nef5 to 2N5.1. […] PBMCs obtained from a donor with the potential to present C14nef5 to 2N5.1 were used as a positive control. Experiments were performed in triplicate. Mean values with s.e.m. are shown. (b) The binding of lipopeptide Ags to recombinant β2m-linked Mamu-B*098 and Mamu-A*02 proteins was monitored by biolayer interferometry. Representative data from three independent experiments are shown. Mamu-A*02, a rhesus MHC class I allele known to bind 9-mer peptides, was used as a negative control. (c) Plate-coated MHC class I molecules were tested for their ability to present lipopeptide Ags to 2N5.1. The Ag-specific T-cell response was assessed by measuring the amount of IFN-γ released into the culture medium. Mean values with s.e.m. are shown. […] The original data (coloured as indicated) are depicted with the curve fit (grey) overlaid. The steady-state affinity plot (inset) is also shown. Three independent experiments were performed and mean equilibrium-dissociation constant (KD) values ±s.d. are shown. (e) Amino acid sequences of Mamu-B*098, HLA-B*27:09, Mamu-B*17:01 and human CD1a are shown. […] Solid and open triangles indicate paired and unpaired cysteine residues, respectively. […]

In the next experiment the test system is 2N5.1. Description: 2N5.1 response to C14nef5 in the presence of rhesus PBMCs and its blocking by mAbs. The class given is cell-based, rhesus macaque. The following applies: rhesus PBMCs derived from a positive donor. How it is done:
The rhesus macaques (Macaca mulatta) used in this study were treated humanely in accordance with institutional regulations, and the experimental protocols were approved by the Committee for Experimental Use of Non-human Primates at the Institute for Virus Research and at the Primate Research Institute, Kyoto University. Rhesus macaque monocytes were isolated from PBMCs using MACS MicroBeads (Miltenyi Biotec, Bergisch Gladbach, Germany) conjugated with cross-reactive anti-human CD14 Abs. After immunizing BALB/c mice with these monocytes, spleen cells were obtained and fused with SP2/0 myeloma cells using the standard polyethylene glycol method. Culture supernatants of the hybridoma clones were tested at a dilution of 1:1 for their reactivity to rhesus macaque monocytes by flow cytometry and positive clones were subjected to T-cell assays to assess blocking activities.

The subject of a further experiment is Mamu-A*02. In words: Biolayer interferometry binding to β2m-linked Mamu-A*02. Also noted: species or system rhesus macaque. The following applies: Octet RED96; biotinylated β2m-linked Mamu-A*02 (refolded with YY9), negative control; lipopeptide 10 μM, 45 min; pH 7.5, 2% DMSO; 30 °C. The text has this:
Single-chain MHC proteins in which β2m was linked via a Gly-Ser linker (GGGGSGGSGSGGGSS) to the ectodomain of either Mamu-B*098 or Mamu-A*02, followed by a biotinylation sequence peptide (LHHILDAQKMVWNHR), were also expressed in E. coli and were purified in a similar manner to the trimer complex of Mamu-B*098, β2m and C14nef5. The β2m-linked Mamu-B*098 protein was refolded without C14nef5, whereas the β2m-linked Mamu-A*02 protein was refolded in the presence of the YY9 peptide (YTSGPGIRY). These recombinant proteins (3 mg) were biotinylated by being incubated for 12 h at 20 °C with 2 μg of BirA enzyme (Sigma-Aldrich, St Louis, MO) in a biotinylation buffer containing 100 mM Tris-HCl pH 8.0, 5 mM MgCl2, 4.5 mM ATP and 4 mM D-biotin, and were purified by size-exclusion chromatography.
The binding of ligands to MHC class I molecules was analysed using the Octet RED96 system equipped with a streptavidin-conjugated biosensor (Pall ForteBio, Menlo Park, CA) according to the manufacturer's instructions. Biotinylated β2m-linked Mamu-B*098 and Mamu-A*02 proteins were immobilized on the sensor tip surface with a signal magnitude of ∼5.0 nm. […] After reference subtraction, binding signals were analysed using the BIAevaluation 3.1 software. […]
For orientation: In BLI a coated tip is dipped into the sample, and binding shifts an interference pattern.

For “C14-Gly-Gly-Ala-Ile-Ser [C14nef5, N-myristoylated 5-mer peptide (C14-Gly-Gly-Ala-Ile-Ser; C14nef5) derived from the SIV Nef protein]”, in experiment [1], the “stimulation of 2N5.1 to produce IFN-γ by Mamu-B*098-transfected LLC-MK2 cells” value was “stimulated 2N5.1 cells to produce interferon-γ (IFN-γ)”. For the same substance, the “2N5.1 response (IFN-γ production) in the presence of rhesus PBMCs” value in the experiment on 2N5.1 is recorded as “responded to C14nef5”. Besides, the “physical interaction with immobilized Mamu-A*02 (biolayer interferometry)” value in the experiment on Mamu-A*02 was “not for the control protein Mamu-A*02”.
